Measurements reported in patent US11447535B2, “GLP-1 analogues” (Sun Pharmaceutical Industries Limited, priority 2018, dated 2022).
Marks after values point to notes of the source that are not given here.

What was measured:
SD rats = assay: Oral glucose tolerance test (OGTT) in rats; single injection; 1 mg/kg; assay type: in vivo; conditions: for Blood Glucose AUC (mg/dL*min) Mean: 1 mg/Kg
Method in brief: (§1)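 SD rats (4 per group), fasted 12 h, received a single 1 mg/kg subcutaneous dose of test compound or semaglutide; oral glucose 2 g/kg given at 22, 166 and 334 h post dose. Glucose read by meter at 0–120 min, AUC0-120 by t test; body weight and food intake recorded.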

[1] = Food intake and body weight recorded in the rat OGTT study; assay type: in vivo, rats; conditions: for Body Weight Change (%) Mean / Food Consumption (g) Mean: 1 mg/Kg
Method in brief: as §1

[2] = system: db/db type 2 diabetic mice; assay: Reduction of HbA1c in db/db type 2 diabetic mice after chronic treatment (27 day study); assay type: in vivo; conditions: db/db mice
Protocol: This study was done in diabetic mouse model. The animals were divided into three treatment groups—a diabetic control group, a test group and a semaglutide treatment group. Compound 1 of the present disclosure was injected subcutaneously at 0.3 mg/kg dose once a day for 3 days (qd*3) followed by 0.1 mg/kg dose every alternate day for 7 doses (q2d*7) followed by 0.1 mg/kg dose once every four days for two dose cycles (q4d*2). The same dosage regimen was administered in semaglutide treatment group. Measurements of blood glucose levels and body weight were done daily. % HbA1c was measured on Day 0, day 7, day 14 and day 27 by column chromatography. Cumulative food intake was calculated on day 27. % HbA1C data was analyzed by two way ANOVA followed by Bonferroni's posttests using PRISM (Graph Pad version 5.03).

[3] = system: db/db mice (diabetic mouse model); assay: Separate db/db diabetic mouse study, q2d*15 up to day 28, recovery period day 29 to day 45; assay type: in vivo
Method in brief: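 db/db diabetic mice received test compounds subcutaneously at 3.04 or 6.078 nM dose every other day to day 28 (q2d*15), alongside diabetic control and semaglutide groups on the same regimen. Blood glucose and body weight were measured daily, with %HbA1c and insulin on days 0, 14 and 29. An untreated recovery phase ran from day 29 to day 45, with final measurements on day 45.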

[4] = rats, 1 mg/kg s.c. single injection, Day 2
[5] = rats, 1 mg/kg s.c. single injection, Day 4
[6] = recovery period, earlier dose 12.155 nM
[7] = recovery study, day 45, earlier dose 12.155 nM

## Semaglutide [reference compound]
SD rats; OGTT, 1 mg/Kg dose, after 24 hrs
  % Glucose Reduction (Blood Glucose AUC0-120 min): 49.3%
SD rats; OGTT, 22 hr, Exp. 1
  Blood Glucose AUC (mg/dL*min) Mean: 5458.0 mg·min/dL
SD rats; OGTT, 22 hr, Exp. 2
  Blood Glucose AUC (mg/dL*min) Mean: 4258 mg·min/dL
SD rats; OGTT, 168 hr, Exp. 1
  Blood Glucose AUC (mg/dL*min) Mean: 12785.0 mg·min/dL
SD rats; OGTT, 168 hr, Exp. 2
  Blood Glucose AUC (mg/dL*min) Mean: 7410 mg·min/dL
SD rats; OGTT, 336 hr, Exp. 1
  Blood Glucose AUC (mg/dL*min) Mean: 16223.0 mg·min/dL
SD rats; OGTT, 336 hr, Exp. 2
  Blood Glucose AUC (mg/dL*min) Mean: 8023.0 mg·min/dL
SD rats; after 168 hrs of injection, 1 mg/kg
  reduction in blood glucose AUC: about 25%
[1]; 48 h, Exp. 1
  Body Weight Change (%) Mean: −6.5%
  Food Consumption (g) Mean: 17.5 g
[1]; 48 h, Exp. 2
  Body Weight Change (%) Mean: −8.7%
  Food Consumption (g) Mean: 19.3 g
[1]; 154 h, Exp. 1
  Body Weight Change (%) Mean: 4.5%
  Food Consumption (g) Mean: 86.3 g
[1]; 154 h, Exp. 2
  Body Weight Change (%) Mean: 0.2%
  Food Consumption (g) Mean: 50.4 g
[1]; 324 h, Exp. 1
  Body Weight Change (%) Mean: 11.8%
  Food Consumption (g) Mean: 107.9 g
[1]; 324 h, Exp. 2
  Body Weight Change (%) Mean: 3.8%
  Food Consumption (g) Mean: 96.8 g
[1]; [4]
  Body Weight (Day 2) % Change vs Baseline: −7.65%
  Body Weight (g) (Day 2) Mean: 428.1 g
[1]; [5]
  Body Weight (Day 4) % Change vs Baseline: −5.3%
  Body Weight (g) (Day 4) Mean: 427.2 g
[1]; rats, 1 mg/kg s.c. single injection, day 0 to day 2
  Food Consumption (g) (day 0 to day 2) Mean: 5.03*** g
[1]; rats, 1 mg/kg s.c. single injection, day 0 to day 4
  Food Consumption (g) (day 0 to day 4) Mean: 55.73*** g
[2]; 0 to 27th day (FIG. 8)
  cumulative food intake vs diabetic control group: statistically significant reduction in food intake
[2]; Day 0 (before treatment)
  % HbA1c Mean: 5.05%
[2]; Day 27, vs Diabetic Control
  % HbA1c % Change vs DC: −2.26%
[2]; Day 27, s.c. 0.3 mg/kg qd*3, 0.1 mg/kg q2d*7, 0.1 mg/kg q4d*2
  % HbA1c Mean: 5.03*** %
[2]; day 0 to day 27 (FIG. 9)
  % change in body weight: −8%
[3]; 12.155 nM, q2d*15
  Blood Glucose AUC (Day 0-29) % Change Vs Control: −41.78%
  Blood Glucose AUC (Day 0-29) (mg/dL*days) Mean: 9867.9*** mg/dL*days
  Body Weight Change Day 29, % Change vs Day 0 Mean: 0.7%
  Cumulative Food Intake (g) Day 0-29 Mean: 92.0 g
[3]; Day 0, 12.15 nM, q2d*15
  % HbA1C Mean: 7.66%
  Insulin (ng/mL) Mean: 18.7 ng/mL
[3]; Day 14, 12.15 nM, q2d*15
  % HbA1C Mean: 7.04%
  Insulin (ng/mL) Mean: 37.5 ng/mL
[3]; Day 29, 12.15 nM, q2d*15
  % HbA1C Mean: 6.47 *** %
  Insulin (ng/mL) Mean: 48.1** ng/mL
[3]; [6]
  Blood Glucose AUC (Day 30-37) % Change vs Control: −15.58%
  Blood Glucose AUC (Day 30-37) (mg/dL*days) Mean: 3032.0 mg·days/dL
  Blood Glucose AUC (Day 38-45) % Change vs Control: −5.16%
  Blood Glucose AUC (Day 38-45) (mg/dL*days) Mean: 3415.7 mg·days/dL
[3]; [7]
  % HbA1C Mean: 7.8%
  Delta HbA1C vs. DC: −0.7
  Insulin (ng/mL) Mean: 19.7 ng/mL
[3]; recovery study, earlier dose 12.155 nM
  Body Weight % Change vs Day 45 Mean: 9.5%
